In patent US20070004660A1, “Synergistic Modulation of Flt3 Kinase Using Alkylquinolines and Alkylquinazolines” (priority 2005, published 2007) one finds IC50 data, which are given here for 26 compounds.

Assay [1] addresses T1, isolated kinase domain of the human FLT3 receptor (a.a. 571-993) (Homo sapiens, UniProt P36888).
T1 construct: human FLT3 receptor (a.a. 571-993)
T1 sequence (P36888 571-993): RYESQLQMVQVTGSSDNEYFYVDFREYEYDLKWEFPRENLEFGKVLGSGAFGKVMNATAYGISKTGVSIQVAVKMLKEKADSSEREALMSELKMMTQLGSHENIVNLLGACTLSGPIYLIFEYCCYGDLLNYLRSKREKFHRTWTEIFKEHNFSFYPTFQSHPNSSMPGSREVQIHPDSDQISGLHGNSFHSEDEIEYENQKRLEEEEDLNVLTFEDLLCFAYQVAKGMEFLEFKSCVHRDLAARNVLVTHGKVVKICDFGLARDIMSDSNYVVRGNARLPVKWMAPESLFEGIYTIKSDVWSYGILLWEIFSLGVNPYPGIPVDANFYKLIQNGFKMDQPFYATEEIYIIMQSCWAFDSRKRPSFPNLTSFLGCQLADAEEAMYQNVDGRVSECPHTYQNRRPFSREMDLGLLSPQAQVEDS
Description: FLT3 fluorescence polarization kinase assay. Format: biochemical. The note with it: 150 uM ATP; uncertainty ±10%. (In general: In fluorescence polarisation assays a small probe gives low polarisation when free and higher when bound to something large.)

For a further assay, the system named is MV4-11 cells. Description: Inhibition of MV4-11 cell proliferation (CellTiterGlo, 72 h). Format: cell-based. The note with it: Homo sapiens; 72 h growth inhibition; uncertainty ±20%. Background: In ATP-based viability assays light output follows the ATP content of the culture.

Structures are written as SMILES.

For the compound `CC(=O)N1CCC(COc2ccc3c(C4CCN(C(=O)Nc5ccc(N6CCCC6)cc5)CC4)ncnc3c2)CC1` [Example 163, 4-[7-(1-Acetyl-piperidin-4-ylmethoxy)-quinazolin-4-yl]-piperidine-1-carboxylic acid (4-pyrrolidin-1-yl-phenyl)-amide], the IC50 – broadly, the midpoint of a concentration-inhibition curve – turned out to be 11 nM in assay [1] and 20 nM in the assay with MV4-11 cells.
The matching figures for `CN1CCCN(c2ccc3c(C4CCN(C(=O)Nc5ccc(N6CCOCC6)cc5)CC4)ncnc3c2)CC1` [Example 138, 4-[7-(4-Methyl-[1,4]diazepan-1-yl)-quinazolin-4-yl]-piperidine-1-carboxylic acid (4-morpholin-4-yl-phenyl)-amide]: 28 nM and 220 nM.
The matching figures for `O=C(Nc1ccc(N2CCCC2)cc1)N1CCC(c2ncnc3cc(OCCO)ccc23)CC1` [Example 169, 4-[7-(2-Hydroxy-ethoxy)-quinazolin-4-yl]-piperidine-1-carboxylic acid (4-pyrrolidin-1-yl-phenyl)-amide]: 32 nM and 32 nM.
As to `COc1cc2ncnc(C3CCN(C(=O)Nc4ccc5[nH]ccc5c4)CC3)c2cc1OC` [Example 23, 4-(6,7-Dimethoxy-quinazolin-4-yl)-piperidine-1-carboxylic acid (1H-indol-5-yl)-amide], the IC50 in assay [1] came to 390 nM; in the assay with MV4-11 cells it was 2700 nM.
The like results for `O=C(Nc1ccc(N2CCCC2)cc1)N1CCC(c2ncnc3cc(Oc4cccnc4)ccc23)CC1` [Example 174, 4-[7-(Pyridin-3-yloxy)-quinazolin-4-yl]-piperidine-1-carboxylic acid (4-pyrrolidin-1-yl-phenyl)-amide] were, in that order, 42 nM and 214 nM.
The matching figures for `O=C(Nc1ccc(N2CCCC2)cc1)N1CCC(c2ncnc3cc(O[C@H]4CCOC4)ccc23)CC1` [Compound 190, (S)-4-[7-(Tetrahydro-furan-3-yloxy)-quinazolin-4-yl]-piperidine-1-carboxylic acid (4-pyrrolidin-1-yl-phenyl)-amide]: 277 nM and 88 nM.
The matching figures for `CC(=O)N1CCN(c2ccc3c(C4CCN(C(=O)Nc5ccc(N6CCCC6)cc5)CC4)ncnc3c2)CC1` [Example 166, 4-[7-(4-Acetyl-piperazin-1-yl)-quinazolin-4-yl]-piperidine-1-carboxylic acid (4-pyrrolidin-1-yl-phenyl)-amide]: 9 nM and 17 nM.
`CN1CCN(CCCOc2ccc3c(C4CCN(C(=O)Nc5ccc(N6CCCC6)cc5)CC4)ncnc3c2)CC1` [Example 158, 4-{7-[3-(4-Methyl-piperazin-1-yl)-propoxy]-quinazolin-4-yl}-piperidine-1-carboxylic acid (4-pyrrolidin-1-yl-phenyl)-amide]: the IC50 stood at 8 nM in assay [1] and 11 nM in the assay with MV4-11 cells.
The like results for `O=C(Nc1ccc(N2CCOCC2)cc1)N1CCC(c2ncnc3cc(N4CCNC4=O)ccc23)CC1` [Compound 197, 4-[7-(2-Oxo-imidazolidin-1-yl)-quinazolin-4-yl]-piperidine-1-carboxylic acid (4-morpholin-4-yl-phenyl)-amide] were, in that order, 1040 nM and 143 nM.
The matching figures for `O=C(Nc1ccc(N2CCOCC2)cc1)N1CCC(c2ncnc3cc(N4CCOCC4)ccc23)CC1` [Example 145, 4-(7-Morpholin-4-yl-quinazolin-4-yl)-piperidine-1-carboxylic acid (4-morpholin-4-yl-phenyl)-amide]: 65 nM and 137 nM.
As to `CN1CCN(c2ccc3c(C4CCN(C(=O)Nc5ccc(N6CCCC6)cc5)CC4)ncnc3c2)CC1` [Example 159, 4-[7-(4-Methyl-piperazin-1-yl)-quinazolin-4-yl]-piperidine-1-carboxylic acid (4-pyrrolidin-1-yl-phenyl)-amide], the values for the concentration for half-maximal inhibition (IC50) (in assay [1]; with MV4-11 cells) were 7 nM and 6 nM, respectively.
The like results for `CS(=O)(=O)N1CCN(CCCOc2ccc3c(C4CCN(C(=O)Nc5ccc(N6CCCC6)cc5)CC4)ncnc3c2)CC1` [Example 164, 4-{7-[3-(4-Methanesulfonyl-piperazin-1-yl)-propoxy]-quinazolin-4-yl}-piperidine-1-carboxylic acid (4-pyrrolidin-1-yl-phenyl)-amide] were, in that order, 25 nM and 36 nM.
The matching figures for `O=C(Nc1ccc(N2CCOCC2)cc1)N1CCC(c2ncnc3cc(OCCN4CCC[C@H]4CO)ccc23)CC1` [Example 153, (S)-4-{7-[2-(2-Hydroxymethyl-pyrrolidin-1-yl)-ethoxy]-quinazolin-4-yl}-piperidine-1-carboxylic acid (4-morpholin-4-yl-phenyl)-amide]: 22 nM and 395 nM.
`CNC(=O)C1CCN(c2ccc3c(C4CCN(C(=O)Nc5ccc(N6CCCC6)cc5)CC4)ncnc3c2)CC1` [Example 155, 4-[7-(4-Carboxylic acid methylamide-piperidin-1-yl)-quinazolin-4-yl]-piperidine-1-carboxylic acid (4-pyrrolidin-1-yl-phenyl)-amide]: the IC50 in assay [1] came out at 8 nM; in the assay with MV4-11 cells, 13 nM.
The like results for `CC(=O)N1CC[C@@H](Oc2ccc3c(C4CCN(C(=O)Nc5ccc(N6CCCC6)cc5)CC4)ncnc3c2)C1` [Example 154, (R)-4-[7-(1-Acetyl-pyrrolidin-3-yloxy)-quinazolin-4-yl]-piperidine-1-carboxylic acid (4-pyrrolidin-1-yl-phenyl)-amide] were, in that order, 15 nM and 63 nM.
The like results for `CC(=O)N1CC(Oc2ccc3c(C4CCN(C(=O)Nc5ccc(N6CCCC6)cc5)CC4)ncnc3c2)C1` [Example 170, 4-[7-(1-Acetyl-azetidin-3-yloxy)-quinazolin-4-yl]-piperidine-1-carboxylic acid (4-pyrrolidin-1-yl-phenyl)-amide] were, in that order, 290 nM and 97 nM.
The matching figures for `CN(C)C(=O)N1CCN(CCCOc2ccc3c(C4CCN(C(=O)Nc5ccc(N6CCCC6)cc5)CC4)ncnc3c2)CC1` [Example 165, 4-(3-{4-[1-(4-Pyrrolidin-1-yl-phenylcarbamoyl)-piperidin-4-yl]-quinazolin-7-yloxy}-propyl)-piperazine-1-carboxylic acid dimethylamide]: 15 nM and 18 nM.
With `CN(C)C(=O)N1CCN(c2ccc3c(C4CCN(C(=O)Nc5ccc(N6CCOCC6)cc5)CC4)ncnc3c2)CC1` [Example 143, 4-{4-[1-(4-Morpholin-4-yl-phenylcarbamoyl)-piperidin-4-yl]-quinazolin-7-yl}-piperazine-1-carboxylic acid dimethylamide], the IC50 in assay [1] stood at 4 nM; in the assay on MV4-11 cells, 39 nM.
In the case of `O=C(Nc1ccc(N2CCCC2)cc1)N1CCC(c2ncnc3cc(N4CCN(c5ncccn5)CC4)ccc23)CC1` [Compound 193, 4-[7-(4-Pyrimidin-2-yl-piperazin-1-yl)-quinazolin-4-yl]-piperidine-1-carboxylic acid (4-pyrrolidin-1-yl-phenyl)-amide], the values for the IC50 (in assay [1]; in the assay on MV4-11 cells) were 4 nM and 16 nM, respectively.
The like results for `O=C(Nc1ccc(N2CCCC2)cc1)N1CCC(c2ncnc3cc(NCCO)ccc23)CC1` [Example 175, 4-[7-(2-Hydroxy-ethylamino)-quinazolin-4-yl]-piperidine-1-carboxylic acid (4-pyrrolidin-1-yl-phenyl)-amide] were, in that order, 1 nM and 18 nM.
The matching figures for `CC(C)Oc1ccc(NC(=O)N2CCC(c3ncnc4ccc(N5CCN(C)CC5)cc34)CC2)cc1` [Example 131, 4-[6-(4-Methyl-piperazin-1-yl)-quinazolin-4-yl]-piperidine-1-carboxylic acid (4-isopropoxy-phenyl)-amide]: 436 nM and 2800 nM.
Turning to `COc1cc2ncnc(C3CCN(C(=O)Nc4ccc(OC5CCC5)nc4)CC3)c2cc1OC` [Example 17, 4-(6,7-Dimethoxy-quinazolin-4-yl)-piperidine-1-carboxylic acid (6-cyclobutoxy-pyridin-3-yl)-amide], the concentration for half-maximal inhibition (IC50) in assay [1] turned out to be 16 nM; in the assay with MV4-11 cells, 31 nM.
The matching figures for `CN1CCN(CCOc2ccc3c(C4CCN(C(=O)Nc5ccc(N6CCCC6)cc5)CC4)ncnc3c2)CC1` [Example 157, 4-{7-[2-(4-Methyl-piperazin-1-yl)-ethoxy]-quinazolin-4-yl}-piperidine-1-carboxylic acid (4-pyrrolidin-1-yl-phenyl)-amide]: 0.5 nM and 9 nM.
Regarding `O=C(Nc1ccc(N2CCCC2)cc1)N1CCC(c2ncnc3cc(OCCN4CCC[C@H]4CO)ccc23)CC1` [Example 152, (S)-4-{7-[2-(2-Hydroxymethyl-pyrrolidin-1-yl)-ethoxy]-quinazolin-4-yl}-piperidine-1-carboxylic acid (4-pyrrolidin-1-yl-phenyl)-amide], the results for the IC50 (in assay [1]; in the assay on MV4-11 cells) were 18 nM and 21 nM, respectively.
The matching figures for `CCN(CC)CCCOc1ccc2c(C3CCN(C(=O)Nc4ccc(N5CCOCC5)cc4)CC3)ncnc2c1` [Example 134, 4-[7-(3-Diethylamino-propoxy)-quinazolin-4-yl]-piperidine-1-carboxylic acid (4-morpholin-4-yl-phenyl)-amide]: 2 nM and 43 nM.
The matching figures for `CS(=O)(=O)N1CCN(c2ccc3c(C4CCN(C(=O)Nc5ccc(N6CCOCC6)cc5)CC4)ncnc3c2)CC1` [Example 142, 4-[7-(4-Methanesulfonyl-piperazin-1-yl)-quinazolin-4-yl]-piperidine-1-carboxylic acid (4-morpholin-4-yl-phenyl)-amide]: 6 nM and 88 nM.
